# Assay results published in publication PMC6979384, “Characterization of the plant homeodomain (PHD) reader family for their histone tail interactions” (Epigenetics & Chromatin, 2020).
# Legend:
# Assay in all cases: Histone peptide microarray
# Format in all cases: binding, human
# ING1 = settings: total n = 4; for Array Heatmap signal, ING1: sheet "Array Heatmap", GST-tagged reader, histone peptide array
# Method in brief: (§1)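 GST-tagged PHD finger readers were expressed, purified and applied at 0.5 μM to a microarray of 293 synthetic histone peptides carrying single or combinatorial PTMs, using an optimized protocol. Binding signals are averages with standard deviation from 4 replicates.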
# AIRE (PP) = settings: total n = 4; for Array Heatmap signal, AIRE (PP): sheet "Array Heatmap", GST-tagged reader, histone peptide array
# Method in brief: as §1
# PHF13 = settings: total n = 4; for Array Heatmap signal, PHF13: sheet "Array Heatmap", GST-tagged reader, histone peptide array
# Method in brief: as §1
# PHF8 = settings: total n = 4; for Array Heatmap signal, PHF8: sheet "Array Heatmap", GST-tagged reader, histone peptide array
# Method in brief: as §1
# CHD4 (PPCC) = settings: total n = 4; for Array Heatmap signal, CHD4 (PPCC): sheet "Array Heatmap", GST-tagged reader, histone peptide array
# Method in brief: as §1
# KDM5B (1) = settings: total n = 4; for Array Heatmap signal, KDM5B (1): sheet "Array Heatmap", GST-tagged reader, histone peptide array
# Method in brief: as §1
# KDM5B (3) = settings: total n = 4; for Array Heatmap signal, KDM5B (3): sheet "Array Heatmap", GST-tagged reader, histone peptide array
# Method in brief: as §1
# MLL5 = settings: total n = 4; for Array Heatmap signal, MLL5: sheet "Array Heatmap", GST-tagged reader, histone peptide array
# Method in brief: as §1
# ING2 = settings: total n = 4; for Array Heatmap signal, ING2: sheet "Array Heatmap", GST-tagged reader, histone peptide array
# Method in brief: as §1
# PHRF1 (RP) = settings: total n = 4; for Array Heatmap signal, PHRF1 (RP): sheet "Array Heatmap", GST-tagged reader, histone peptide array
# Method in brief: as §1
# TAF3 = settings: total n = 4; for Array Heatmap signal, TAF3: sheet "Array Heatmap", GST-tagged reader, histone peptide array
# Method in brief: as §1
# CHD5 (PCC) = settings: total n = 4; for Array Heatmap signal, CHD5 (PCC): sheet "Array Heatmap", GST-tagged reader, histone peptide array
# Method in brief: as §1
# BAZ2B = settings: total n = 4; for Array Heatmap signal, BAZ2B: sheet "Array Heatmap", GST-tagged reader, histone peptide array
# Method in brief: as §1
# DIDO1 = settings: total n = 4; for Array Heatmap signal, DIDO1: sheet "Array Heatmap", GST-tagged reader, histone peptide array
# Method in brief: as §1
# CHD5 (PPCC) = settings: total n = 4; for Array Heatmap signal, CHD5 (PPCC): sheet "Array Heatmap", GST-tagged reader, histone peptide array
# Method in brief: as §1
# MORC3 (CW) = settings: total n = 4; for Array Heatmap signal, MORC3 (CW): sheet "Array Heatmap", GST-tagged reader, histone peptide array
# Method in brief: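 Steps: express and purify GST-tagged PHD reader; incubate 0.5 μM protein on a peptide microarray (293 histone peptides, single or combined PTMs) following an optimized protocol; average signal across 4 replicates.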
# DPF2 (PPC2W2) = settings: total n = 4; for Array Heatmap signal, DPF2 (PPC2W2): sheet "Array Heatmap", GST-tagged reader, histone peptide array
# Method in brief: as §1
# SP140L = settings: total n = 4; for Array Heatmap signal, SP140L: sheet "Array Heatmap", GST-tagged reader, histone peptide array
# Method in brief: as §1
# KDM5A (3) = settings: total n = 4; for Array Heatmap signal, KDM5A (3): sheet "Array Heatmap", GST-tagged reader, histone peptide array
# Method in brief: as §1
# PHF21A = settings: total n = 4; for Array Heatmap signal, PHF21A: sheet "Array Heatmap", GST-tagged reader, histone peptide array
# Method in brief: as §1
# ING5 = settings: total n = 4; for Array Heatmap signal, ING5: sheet "Array Heatmap", GST-tagged reader, histone peptide array
# Method in brief: as §1
# BPTF (PB) = settings: total n = 4; for Array Heatmap signal, BPTF (PB): sheet "Array Heatmap", GST-tagged reader, histone peptide array
# Method in brief: as §1
# KDM7A = settings: total n = 4; for Array Heatmap signal, KDM7A: sheet "Array Heatmap", GST-tagged reader, histone peptide array
# Method in brief: as §1
# PHF2 = settings: total n = 4; for Array Heatmap signal, PHF2: sheet "Array Heatmap", GST-tagged reader, histone peptide array
# Method in brief: as §1
# TRIM66 (PB) = settings: total n = 4; for Array Heatmap signal, TRIM66 (PB): sheet "Array Heatmap", GST-tagged reader, histone peptide array
# Method in brief: as §1
# KDM5A (1) = settings: total n = 4; for Array Heatmap signal, KDM5A (1): sheet "Array Heatmap", GST-tagged reader, histone peptide array
# Method in brief: as §1
# ING3 = settings: total n = 4; for Array Heatmap signal, ING3: sheet "Array Heatmap", GST-tagged reader, histone peptide array
# Method in brief: as §1
# PHF23 = settings: total n = 4; for Array Heatmap signal, PHF23: sheet "Array Heatmap", GST-tagged reader, histone peptide array
# Method in brief: as §1
# RAG2 = settings: total n = 4; for Array Heatmap signal, RAG2: sheet "Array Heatmap", GST-tagged reader, histone peptide array
# Method in brief: as §1
# ING4 = settings: total n = 4; for Array Heatmap signal, ING4: sheet "Array Heatmap", GST-tagged reader, histone peptide array
# Method in brief: as §1
# KDM4C (TTP) = settings: total n = 4; for Array Heatmap signal, KDM4C (TTP): sheet "Array Heatmap", GST-tagged reader, histone peptide array
# Method in brief: as §1
substance,measurement,setting,value
H3K9ac + K14ac: H3 1-20,Array Heatmap signal (histone peptide microarray),"ING1; GST-tagged ING1, sheet Array Heatmap, each array performed twice",0.5104
same,Array Heatmap signal (histone peptide microarray),"AIRE (PP); GST-tagged AIRE (PP), sheet Array Heatmap, each array performed twice",0.699
same,Array Heatmap signal (histone peptide microarray),"PHF13; GST-tagged PHF13, sheet Array Heatmap, each array performed twice",0.6041
same,Array Heatmap signal (histone peptide microarray),"PHF8; GST-tagged PHF8, sheet Array Heatmap, each array performed twice",0.3842
same,Array Heatmap signal (histone peptide microarray),"CHD4 (PPCC); GST-tagged CHD4 (PPCC = Dual PHD + Dual Chromodomain), sheet Array Heatmap, each array performed twice",0.673
same,Array Heatmap signal (histone peptide microarray),"KDM5B (1); GST-tagged KDM5B (1), sheet Array Heatmap, each array performed twice",0.9142
same,Array Heatmap signal (histone peptide microarray),"KDM5B (3); GST-tagged KDM5B (3), sheet Array Heatmap, each array performed twice",0.6203
same,Array Heatmap signal (histone peptide microarray),"MLL5; GST-tagged MLL5, sheet Array Heatmap, each array performed twice",0.5394
same,Array Heatmap signal (histone peptide microarray),"ING2; GST-tagged ING2, sheet Array Heatmap, each array performed twice",0.5932
same,Array Heatmap signal (histone peptide microarray),"PHRF1 (RP); GST-tagged PHRF1 (RP), sheet Array Heatmap, each array performed twice",1
same,Array Heatmap signal (histone peptide microarray),"TAF3; GST-tagged TAF3, sheet Array Heatmap, each array performed twice",0.3149
same,Array Heatmap signal (histone peptide microarray),"CHD5 (PCC); GST-tagged CHD5 (PCC = PHD + Dual Chromodomain), sheet Array Heatmap, each array performed twice",0.9958
same,Array Heatmap signal (histone peptide microarray),"BAZ2B; GST-tagged BAZ2B, sheet Array Heatmap, each array performed twice",1
same,Array Heatmap signal (histone peptide microarray),"DIDO1; GST-tagged DIDO1, sheet Array Heatmap, each array performed twice",0.6252
same,Array Heatmap signal (histone peptide microarray),"CHD5 (PPCC); GST-tagged CHD5 (PPCC = Dual PHD + Dual Chromodomain), sheet Array Heatmap, each array performed twice",0.6001
same,Array Heatmap signal (histone peptide microarray),"MORC3 (CW); GST-tagged MORC3 (CW = CW-type Zn-finger), sheet Array Heatmap, each array performed twice",0.5873
same,Array Heatmap signal (histone peptide microarray),"DPF2 (PPC2W2); GST-tagged DPF2 (PPC2W2 = Dual PHD + C2W2-type Zn-finger), sheet Array Heatmap, each array performed twice",1
same,Array Heatmap signal (histone peptide microarray),"SP140L; GST-tagged SP140L, sheet Array Heatmap, each array performed twice",0.3541
same,Array Heatmap signal (histone peptide microarray),"KDM5A (3); GST-tagged KDM5A (3), sheet Array Heatmap, each array performed twice",0.5178
same,Array Heatmap signal (histone peptide microarray),"PHF21A; GST-tagged PHF21A, sheet Array Heatmap, each array performed twice",0.5392
same,Array Heatmap signal (histone peptide microarray),"ING5; GST-tagged ING5, sheet Array Heatmap, each array performed twice",0.3504
same,Array Heatmap signal (histone peptide microarray),"BPTF (PB); GST-tagged BPTF (PB = PHD + Bromodomain), sheet Array Heatmap, each array performed twice",0.3651
same,Array Heatmap signal (histone peptide microarray),"KDM7A; GST-tagged KDM7A, sheet Array Heatmap, each array performed twice",0.4362
same,Array Heatmap signal (histone peptide microarray),"PHF2; GST-tagged PHF2, sheet Array Heatmap, each array performed twice",0.4774
same,Array Heatmap signal (histone peptide microarray),"TRIM66 (PB); GST-tagged TRIM66 (PB = PHD + Bromodomain), sheet Array Heatmap, each array performed twice",0.9112
same,Array Heatmap signal (histone peptide microarray),"KDM5A (1); GST-tagged KDM5A (1), sheet Array Heatmap, each array performed twice",0.5569
same,Array Heatmap signal (histone peptide microarray),"ING3; GST-tagged ING3, sheet Array Heatmap, each array performed twice",0.4549
same,Array Heatmap signal (histone peptide microarray),"PHF23; GST-tagged PHF23, sheet Array Heatmap, each array performed twice",0.5024
same,Array Heatmap signal (histone peptide microarray),"RAG2; GST-tagged RAG2, sheet Array Heatmap, each array performed twice",0.2862
same,Array Heatmap signal (histone peptide microarray),"ING4; GST-tagged ING4, sheet Array Heatmap, each array performed twice",0.4734
same,Array Heatmap signal (histone peptide microarray),"KDM4C (TTP); GST-tagged KDM4C (TTP = Tandem Tudor domain + PHD), sheet Array Heatmap, each array performed twice",0.5191
H3K9ac + S10p: H3 1-20,"Array Heatmap signal, ING1",ING1,0.4982
same,"Array Heatmap signal, AIRE (PP)",AIRE (PP),0.6057
same,"Array Heatmap signal, PHF13",PHF13,0.5949
same,"Array Heatmap signal, PHF8",PHF8,0.3696
same,"Array Heatmap signal, CHD4 (PPCC)",CHD4 (PPCC),0.5496
same,"Array Heatmap signal, KDM5B (1)",KDM5B (1),0.6761
same,"Array Heatmap signal, KDM5B (3)",KDM5B (3),0.53
same,"Array Heatmap signal, MLL5",MLL5,0.5353
same,"Array Heatmap signal, ING2",ING2,0.597
same,"Array Heatmap signal, PHRF1 (RP)",PHRF1 (RP),0.4935
same,"Array Heatmap signal, TAF3",TAF3,0.2808
same,"Array Heatmap signal, CHD5 (PCC)",CHD5 (PCC),0.846
same,"Array Heatmap signal, BAZ2B",BAZ2B,0.4929
same,"Array Heatmap signal, DIDO1",DIDO1,0.6052
same,"Array Heatmap signal, CHD5 (PPCC)",CHD5 (PPCC),0.5687
same,"Array Heatmap signal, MORC3 (CW)",MORC3 (CW),0.3729
same,"Array Heatmap signal, DPF2 (PPC2W2)",DPF2 (PPC2W2),0.6808
same,"Array Heatmap signal, SP140L",SP140L,0.3709
same,"Array Heatmap signal, KDM5A (3)",KDM5A (3),0.462
same,"Array Heatmap signal, PHF21A",PHF21A,0.4788
same,"Array Heatmap signal, ING5",ING5,0.3597
same,"Array Heatmap signal, BPTF (PB)",BPTF (PB),0.3364
same,"Array Heatmap signal, KDM7A",KDM7A,0.5012
same,"Array Heatmap signal, PHF2",PHF2,0.4212
same,"Array Heatmap signal, TRIM66 (PB)",TRIM66 (PB),0.5818
same,"Array Heatmap signal, KDM5A (1)",KDM5A (1),0.5046
same,"Array Heatmap signal, ING3",ING3,0.4478
same,"Array Heatmap signal, PHF23",PHF23,0.5104
same,"Array Heatmap signal, RAG2",RAG2,0.2427
same,"Array Heatmap signal, ING4",ING4,0.4766
same,"Array Heatmap signal, KDM4C (TTP)",KDM4C (TTP),0.5441
H3K9me1: H3 1-20 [Peptide H3K9me1],"Array Heatmap signal, ING1",ING1,0.4934
same,"Array Heatmap signal, AIRE (PP)",AIRE (PP),0.5694
same,"Array Heatmap signal, PHF13",PHF13,0.594
same,"Array Heatmap signal, PHF8",PHF8,0.3494
same,"Array Heatmap signal, CHD4 (PPCC)",CHD4 (PPCC),0.6171
same,"Array Heatmap signal, KDM5B (1)",KDM5B (1),0.68
same,"Array Heatmap signal, KDM5B (3)",KDM5B (3),0.4949
same,"Array Heatmap signal, MLL5",MLL5,0.5407
same,"Array Heatmap signal, ING2",ING2,0.5783
same,"Array Heatmap signal, PHRF1 (RP)",PHRF1 (RP),0.6479
same,"Array Heatmap signal, TAF3",TAF3,0.2561
same,"Array Heatmap signal, CHD5 (PCC)",CHD5 (PCC),0.8558
same,"Array Heatmap signal, BAZ2B",BAZ2B,0.4746
same,"Array Heatmap signal, DIDO1",DIDO1,0.6415
same,"Array Heatmap signal, CHD5 (PPCC)",CHD5 (PPCC),0.5585
same,"Array Heatmap signal, MORC3 (CW)",MORC3 (CW),0.4491
same,"Array Heatmap signal, DPF2 (PPC2W2)",DPF2 (PPC2W2),0.6871
same,"Array Heatmap signal, SP140L",SP140L,0.3427
same,"Array Heatmap signal, KDM5A (3)",KDM5A (3),0.4739
same,"Array Heatmap signal, PHF21A",PHF21A,0.4979
same,"Array Heatmap signal, ING5",ING5,0.3437
same,"Array Heatmap signal, BPTF (PB)",BPTF (PB),0.3459
same,"Array Heatmap signal, KDM7A",KDM7A,0.3983
same,"Array Heatmap signal, PHF2",PHF2,0.4569
same,"Array Heatmap signal, TRIM66 (PB)",TRIM66 (PB),0.6422
same,"Array Heatmap signal, KDM5A (1)",KDM5A (1),0.4835
same,"Array Heatmap signal, ING3",ING3,0.4876
same,"Array Heatmap signal, PHF23",PHF23,0.5057
same,"Array Heatmap signal, RAG2",RAG2,0.2526
same,"Array Heatmap signal, ING4",ING4,0.4656
same,"Array Heatmap signal, KDM4C (TTP)",KDM4C (TTP),0.5061
